In brackets after ≈: the same amount, converted by molar mass. Where two headings read alike, the source gives them in different places. Numbered stars: 1 amine (or outer) side, 2 acyl side, 3 side chain; on linkers, the order of the positions; unused ones are H or OH. Bridge positions count the residues as written; N and C are the ends. Side chains are listed from the residue outwards. Peptide text beside a SMILES is read from it. * marks the point of attachment. C20 diacid = O=C(O)CCCCCCCCCCCCCCCCCCC(=O)*; γGlu = O=C(O)[C@H](CCC(=O)[*:2])N[*:1]; AEEA = NCCOCCOCC(=O)O
Key:
[1] = ASSAY (IV) determination of solubility; format: physicochemical
Summary of the method: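 Solubility measured by UPLC of supernatant after centrifugation, following 18 h at room temperature. Peptide ([…] in water) was diluted 1:1 into 100 mM glycylglycine (pH 3.0, 4.0, 5.0) or bistrispropane (pH 6.0-8.0).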

[2] = target: T1, human calcitonin (a) receptor in BHK570 cells (Homo sapiens, UniProt P30988); experiment: ASSAY (II)a functional assay, human calcitonin receptor (CRE luciferase); format: cell-based; conditions: read-out: hCTR funct. EC50
T1 construct: expressed in transfected cells
T1 sequence (P30988 25-474): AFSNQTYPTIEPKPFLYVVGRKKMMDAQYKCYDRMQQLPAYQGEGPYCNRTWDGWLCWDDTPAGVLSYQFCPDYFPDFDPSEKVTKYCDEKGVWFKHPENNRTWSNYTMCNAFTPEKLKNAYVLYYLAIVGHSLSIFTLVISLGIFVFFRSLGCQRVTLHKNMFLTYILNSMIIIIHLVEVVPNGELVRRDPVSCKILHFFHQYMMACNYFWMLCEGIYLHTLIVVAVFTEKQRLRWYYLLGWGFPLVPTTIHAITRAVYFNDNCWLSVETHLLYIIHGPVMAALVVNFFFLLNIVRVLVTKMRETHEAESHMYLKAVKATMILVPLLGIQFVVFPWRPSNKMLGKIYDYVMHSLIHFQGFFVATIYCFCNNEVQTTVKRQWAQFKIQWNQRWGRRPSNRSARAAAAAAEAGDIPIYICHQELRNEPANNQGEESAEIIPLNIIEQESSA
Summary of the method: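 Readout is luminescence from a cAMP-responsive CRE-luc reporter, developed with LucLite for 30 min at room temperature. Cells were treated for 3 h at 37 °C in 10% FBS/DMEM buffered with 10 mM Hepes (pH 7.4).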

[3] = target: T2, human calcitonin receptor (Homo sapiens, UniProt P30988); experiment: ASSAY (VII) binding to the human calcitonin receptor (SPA, 125I-Calcitonin); conditions: read-out: hCTR bind IC50;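 further: cell membranes (35 ng/µL) combined with SPA beads in 40 µL of pH 7.4 Hepes buffer, 384-well format, signal counted on a TopCounter instrument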
T2 construct: expressed in transfected cells
T2 sequence (P30988 25-474): T1 sequence (P30988 25-474)

[4] = bistrispropane buffer, pH 6.5, read-out: Solubility pH 6.5 Concentration
[5] = bistrispropane buffer, pH 7.5, read-out: Solubility pH 7.5 Concentration
[6] = bistrispropane buffer, pH 6.0, read-out: Solubility pH 6.0 Concentration
[7] = bistrispropane buffer, pH 7.0, read-out: Solubility pH 7.0 Concentration
[8] = bistrispropane buffer, pH 8.0, read-out: Solubility pH 8.0 Concentration
[9] = glycylglycine buffer, pH 3.0, read-out: Solubility pH 3.0 Concentration
[10] = glycylglycine buffer, pH 4.0, read-out: Solubility pH 4.0 Concentration
[11] = glycylglycine buffer, pH 5.0, read-out: Solubility pH 5.0 Concentration

solubility at 18 h [1, 4] [µM] | solubility at 18 h [1, 5] [µM] | solubility at 18 h [1, 6] [µM] | solubility at 18 h [1, 7] [µM] | solubility at 18 h [1, 8] [µM] | solubility at 18 h [1, 9] [µM] | solubility at 18 h [1, 10] [µM] | solubility at 18 h [1, 11] [µM] | EC50 [2] [nM] | IC50 [3] [nM] | Compound
≥ 200 | ≥ 200 | ≥ 200 | ≥ 200 | ≥ 200 | ≥ 200 | ≥ 200 | ≥ 200 | 2.14 | 19.8 | CC[C@H](C)[C@H](NC(=O)[C@H](C)NC(=O)CNC(=O)[C@H](Cc1ccccc1)NC(=O)[C@H](CC(N)=O)NC(=O)[C@@H]1CCCN1C(=O)[C@H](CO)NC(=O)[C@H](CO)NC(=O)[C@H](Cc1c[nH]cn1)NC(=O)[C@H](CCCNC(=N)N)NC(=O)[C@H](CC(C)C)NC(=O)[C@H](Cc1ccccc1)NC(=O)[C@H](Cc1c[nH]cn1)NC(=O)[C@H](C)NC(=O)[C@H](CC(C)C)NC(=O)[C@H](CCCNC(=N)N)NC(=O)[C@H](CCC(N)=O)NC(=O)[C@@H](NC(=O)[C@H](C)NC(=O)[C@@H]1CSSC[C@H](NC(=O)[C@@H](N)CCCCNC(=O)COCCOCCNC(=O)CC[C@H](NC(=O)CCCCCCCCCCCCCCCCCCC(=O)O)C(=O)O)C(=O)N[C@@H](CC(N)=O)C(=O)N[C@@H]([C@@H](C)O)C(=O)N[C@@H](C)C(=O)N[C@@H]([C@@H](C)O)C(=O)N1)[C@@H](C)O)C(=O)N1CCC[C@H]1C(=O)N[C@@H](CO)C(=O)N[C@@H](CO)C(=O)N[C@H](C(=O)N[C@@H](CC(N)=O)C(=O)N[C@H](C(=O)NCC(=O)N[C@@H](Cc1c[nH]cn1)C(=O)N[C@@H](CC(N)=O)C(=O)N[C@H](C(=O)N[C@@H](Cc1ccc(O)cc1)C(N)=O)[C@@H](C)O)C(C)C)[C@@H](C)O [Example 80] (H-K([AEEA-γGlu-C20 diacid])CNTATCATQRLAHFLRHSSPNFGAIPSSTNVGHNTY-NH2; disulfide 2-7; N-terminus assumed)
≥ 200 | ≥ 200 | ≥ 200 | ≥ 200 | ≥ 200 | ≥ 200 | ≥ 200 | ≥ 200 | 1.73 | 23.6 | CC[C@H](C)[C@H](NC(=O)[C@H](C)NC(=O)CNC(=O)[C@H](Cc1ccccc1)NC(=O)[C@H](CC(N)=O)NC(=O)[C@@H]1CCCN1C(=O)[C@H](CO)NC(=O)[C@H](CO)NC(=O)[C@H](Cc1c[nH]cn1)NC(=O)[C@H](CCCNC(=N)N)NC(=O)[C@H](CC(C)C)NC(=O)[C@H](Cc1ccccc1)NC(=O)[C@H](Cc1c[nH]cn1)NC(=O)[C@H](C)NC(=O)[C@H](CC(C)C)NC(=O)[C@H](CCCNC(=N)N)NC(=O)[C@H](CCC(N)=O)NC(=O)[C@@H](NC(=O)[C@H](C)NC(=O)[C@@H]1CSSC[C@H](NC(=O)[C@@H](N)CCCCNC(=O)CC[C@H](NC(=O)CCCCCCCCCCCCCCCCCCC(=O)O)C(=O)O)C(=O)N[C@@H](CC(N)=O)C(=O)N[C@@H]([C@@H](C)O)C(=O)N[C@@H](C)C(=O)N[C@@H]([C@@H](C)O)C(=O)N1)[C@@H](C)O)C(=O)N1CCC[C@H]1C(=O)N[C@@H](CO)C(=O)N[C@@H](CO)C(=O)N[C@H](C(=O)N[C@@H](CC(N)=O)C(=O)N[C@H](C(=O)NCC(=O)N[C@@H](Cc1c[nH]cn1)C(=O)N[C@@H](CC(N)=O)C(=O)N[C@H](C(=O)N[C@@H](Cc1ccc(O)cc1)C(N)=O)[C@@H](C)O)C(C)C)[C@@H](C)O [Example 81] (H-K([γGlu-C20 diacid])CNTATCATQRLAHFLRHSSPNFGAIPSSTNVGHNTY-NH2; disulfide 2-7; N-terminus assumed)
≥ 200 | ≥ 200 | ≥ 200 | ≥ 200 | ≥ 200 | ≥ 200 | ≥ 200 | ≥ 200 | 5.49 | 88.9 | CC[C@H](C)[C@H](NC(=O)[C@H](C)NC(=O)CNC(=O)[C@H](Cc1ccccc1)NC(=O)[C@H](CC(N)=O)NC(=O)[C@@H]1CCCN1C(=O)[C@H](CO)NC(=O)[C@H](CO)NC(=O)[C@H](Cc1c[nH]cn1)NC(=O)[C@H](CCCNC(=N)N)NC(=O)[C@H](CC(C)C)NC(=O)[C@H](Cc1ccccc1)NC(=O)[C@H](Cc1c[nH]cn1)NC(=O)[C@H](C)NC(=O)[C@H](CC(C)C)NC(=O)[C@H](CCCNC(=N)N)NC(=O)[C@H](CCC(N)=O)NC(=O)[C@@H](NC(=O)[C@H](C)NC(=O)[C@@H]1CSSC[C@H](NC(=O)[C@@H](N)CCCCNC(=O)COCCOCCNC(=O)CC[C@H](NC(=O)CCCCCCCCCCCCCCCCCCC(=O)O)C(=O)O)C(=O)N[C@@H](CC(N)=O)C(=O)N[C@@H]([C@@H](C)O)C(=O)N[C@@H](C)C(=O)N[C@@H]([C@@H](C)O)C(=O)N1)[C@@H](C)O)C(=O)N1CCC[C@H]1C(=O)N[C@@H](CO)C(=O)N[C@@H](CO)C(=O)N[C@H](C(=O)N[C@@H](CC(N)=O)C(=O)N[C@H](C(=O)NCC(=O)N[C@@H](CCCNC(=N)N)C(=O)N[C@@H](CC(N)=O)C(=O)N[C@H](C(=O)N[C@@H](Cc1ccc(O)cc1)C(N)=O)[C@@H](C)O)C(C)C)[C@@H](C)O [Example 84] (H-K([AEEA-γGlu-C20 diacid])CNTATCATQRLAHFLRHSSPNFGAIPSSTNVGRNTY-NH2; disulfide 2-7 (inferred); N-terminus assumed)
144 (≈ 659 µg/mL) | ≥ 200 | 156 (≈ 714 µg/mL) | 146 (≈ 668 µg/mL) | ≥ 200 | ≥ 200 | ≥ 200 | ≥ 200 | 1.09 | 22.5 | CC[C@H](C)[C@H](NC(=O)[C@H](C)NC(=O)CNC(=O)[C@H](Cc1ccccc1)NC(=O)[C@H](CC(N)=O)NC(=O)[C@@H]1CCCN1C(=O)[C@H](CO)NC(=O)[C@H](CO)NC(=O)[C@H](Cc1c[nH]cn1)NC(=O)[C@H](CCCNC(=N)N)NC(=O)[C@H](CC(C)C)NC(=O)[C@H](Cc1ccccc1)NC(=O)[C@H](CCC(=O)O)NC(=O)[C@H](C)NC(=O)[C@H](CC(C)C)NC(=O)[C@H](CCCNC(=N)N)NC(=O)[C@H](CCC(N)=O)NC(=O)[C@@H](NC(=O)[C@H](C)NC(=O)[C@@H]1CSSC[C@H](NC(=O)[C@@H](N)CCCCNC(=O)CC[C@H](NC(=O)CC[C@H](NC(=O)CCCCCCCCCCCCCCCCCCC(=O)O)C(=O)O)C(=O)O)C(=O)N[C@@H](CC(N)=O)C(=O)N[C@@H]([C@@H](C)O)C(=O)N[C@@H](C)C(=O)N[C@@H]([C@@H](C)O)C(=O)N1)[C@@H](C)O)C(=O)N1CCC[C@H]1C(=O)N[C@@H](CO)C(=O)N[C@@H](CO)C(=O)N[C@H](C(=O)N[C@@H](CC(N)=O)C(=O)N[C@H](C(=O)NCC(=O)N[C@@H](Cc1c[nH]cn1)C(=O)N[C@@H](CC(N)=O)C(=O)N[C@H](C(=O)N[C@@H](Cc1ccc(O)cc1)C(N)=O)[C@@H](C)O)C(C)C)[C@@H](C)O [Example 87] (H-K([γGlu-γGlu-C20 diacid])CNTATCATQRLAEFLRHSSPNFGAIPSSTNVGHNTY-NH2; disulfide 2-7)

Compound | solubility at 18 h [1, 4] [µM] | solubility at 18 h [1, 5] [µM] | solubility at 18 h [1, 6] [µM] | solubility at 18 h [1, 7] [µM] | solubility at 18 h [1, 8] [µM] | solubility at 18 h [1, 9] [µM] | solubility at 18 h [1, 10] [µM] | solubility at 18 h [1, 11] [µM] | EC50 [2] [nM] | IC50 [3] [nM]
CC[C@H](C)[C@H](NC(=O)[C@H](C)NC(=O)CNC(=O)[C@H](Cc1ccccc1)NC(=O)[C@H](CC(N)=O)NC(=O)[C@@H]1CCCN1C(=O)[C@H](CO)NC(=O)[C@H](CO)NC(=O)[C@H](Cc1c[nH]cn1)NC(=O)[C@H](CCCNC(=N)N)NC(=O)[C@H](CC(C)C)NC(=O)[C@H](Cc1ccccc1)NC(=O)[C@H](C)NC(=O)[C@H](C)NC(=O)[C@H](CC(C)C)NC(=O)[C@H](CCCNC(=N)N)NC(=O)[C@H](CCC(N)=O)NC(=O)[C@@H](NC(=O)[C@H](C)NC(=O)[C@@H]1CSSC[C@H](NC(=O)[C@@H](N)CCCCNC(=O)CC[C@H](NC(=O)CCCCCCCCCCCCCCCCCCC(=O)O)C(=O)O)C(=O)N[C@@H](CC(N)=O)C(=O)N[C@@H]([C@@H](C)O)C(=O)N[C@@H](C)C(=O)N[C@@H]([C@@H](C)O)C(=O)N1)[C@@H](C)O)C(=O)N1CCC[C@H]1C(=O)N[C@@H](CO)C(=O)N[C@@H](CO)C(=O)N[C@H](C(=O)N[C@@H](CC(N)=O)C(=O)N[C@H](C(=O)NCC(=O)N1CCC[C@H]1C(=O)N[C@@H](CC(N)=O)C(=O)N[C@H](C(=O)N[C@@H](Cc1ccc(O)cc1)C(N)=O)[C@@H](C)O)C(C)C)[C@@H](C)O [Example 94] (H-K([γGlu-C20 diacid])CNTATCATQRLAAFLRHSSPNFGAIPSSTNVGPNTY-NH2; disulfide 2-7 (inferred)) | ≥ 200 | ≥ 200 | ≥ 200 | ≥ 200 | ≥ 200 | ≥ 200 | ≥ 200 | ≥ 200 | 0.316 | 6.86
